Source: patent publication US12290519B2, “Anti-inflammatory coupling compound drug, and preparation method therefor and use thereof” (COVAL BIOPHARMA (SHANGHAI) CO., LTD., priority 2021, dated 2025)

Test: Hydrolysis rate / drug release rate of the compounds (release of JAK inhibitor, HPLC)
Format: physicochemical
Conditions: % release of JAK inhibitor from sample in acetonitrile/water=7/3 (v/v), 37° C. constant temperature shaker, sampled days 1-4, HPLC
Experimental: Analysis Method for Hydrolysis Rate of Compounds of the Present Invention
1. Preparation of Standard Working Curve Solution
(§1) About 10 mg of JAK inhibitors (tofacitinib and baricitinib) reference substances were weighed into a 25 mL volumetric flask, acetonitrile/water=7/3 (v/v) was added to dissolve and dilute to the marked volume, serving as a stock solution. The stock solution was diluted with a suitable dilution factor to obtain linear solutions of each concentration: 0.0002 mg/mL, 0.0004 mg/mL, 0.004 mg/mL, 0.04 mg/mL, and 0.08 mg/mL.
as §1, with “(Oclacitinib, Ruxolitinib, Delgocitinib,” for “(tofacitinib”, “Upadacitinib)” for “baricitinib)”
2. Preparation of Sample Solution
About 5 mg of the sample (the compound prepared in the present invention) was weighed into a 20 mL volumetric flask, acetonitrile/water=7/3 (v/v) was added to dissolve and dilute to the marked volume, serving as a stock solution. An appropriate amount of HPLC was loaded as the 0-day sample. The test solution was sealed with a sealing film and placed in a 37° C. constant temperature shaker. The test samples were taken at the same time on days 1, 2, 3, and 4 respectively. the release amount of JAK inhibitor in the sample was calculated according to the sample weight and JAK inhibitor standard curve.
3. Calculation Formula % Release of JAK Inhibitor r=100%×((AJAK Inhibitor−b)/a)/((W/20×M2/M1) wherein • AJAK inhibitor is the peak area of JAK inhibitor in the sample chromatogram • b is the intercept of the standard curve M1 is the molecular weight of the sample a is the slope of the standard curve
W is the sample weight (mg) M2 is the molecular weight of the JAK inhibitor
4. Chromatographic Conditions

| Compound | Release Rate (%/day) |
| --- | --- |
| Cc1cnc(NC(=O)C2=C(OCn3ccc4c(N(C)[C@H]5CN(C(=O)CC#N)CC[C@H]5C)ncnc43)c3ccccc3S(=O)(=O)N2C)s1 [Ex. 142, 4-((4-(((3R, 4R)-1-(2-cyanoacetyl)-4-methylpiperidin-3-yl) (methyl)amino)-7H-pyrrolo [2,3-d]pyrimidin-7-yl)methoxy)-2-methyl-N-(5-methylthiazol-2-yl)-2H-benzo [e] [1, 2] thiazine-3-carboxamide 1,1-dioxide] | 0.05 |
| CC(C(=O)OCn1ccc2c(N(C)[C@H]3CN(C(=O)CC#N)CC[C@H]3C)ncnc21)c1ccc(CC2CCCC2=O)cc1 (stereo partly drawn) [Ex. 53, (4-(((3R, 4R)-1-(2-cyanoacetyl)-4-methylpiperidin-3-yl) (methyl)amino)-7H-pyrrolo [2,3-d]pyrimidin-7-yl) methyl 2-(4-((2-oxocyclopentyl)methyl)phenyl) propanoate] | 0.06 |
| CNS(=O)(=O)CC1CCC(N(C)c2ncnc3c2ccn3C(=O)[C@@H](C)c2ccc3cc(OC)ccc3c2)CC1 (stereo partly drawn) [Ex. 39, 1-((Trans)-4-((7-((S)-2-(6-methoxynaphthalen-2-yl)propanoyl)-7H-pyrrolo [2,3-d]pyrimidin-4-yl) (methyl)amino)cyclohexyl)-N-methyl methanesulfonamide] | 10.11 |
| CNS(=O)(=O)C[C@H]1CC[C@H](N(C)c2ncnc3c2ccn3C(=O)Cc2ccc(NC(C)=O)cc2)CC1 [Ex. 58, N-(4-(2-(4-(methyl ((trans)-4-((N-methylsulfamoyl)methyl)cyclohexyl)amino)-7H-pyrrolo [2,3-d]pyrimidin-7-yl)-2-oxoethyl)phenyl) acetamide] | 12.46 |
| CCc1cccc2c3c([nH]c12)C(CC)(CC(=O)n1ccc2c(-c4cnn([C@H](CC#N)C5CCCC5)c4)ncnc21)OCC3 (stereo partly drawn) [Ex. 45, (3R)-3-cyclopentyl-3-(4-(7-(2-(1,8-diethyl-1,3,4,9-tetrahydropyran [3,4-b]indol-1-yl)acetyl)-7H-pyrrolo [2,3-d]pyrimidin-4-yl)-1H-pyrazol-1-yl) propanenitrile] | 1.93 |
| CCc1cccc2c3c([nH]c12)C(CC)(CC(=O)OCn1ccc2c(N(C)[C@H]4CC[C@H](CS(=O)(=O)NC)CC4)ncnc21)OCC3 (stereo partly drawn) [Ex. 94, (4-(Methyl ((trans)-4-((N-methylsulfamoyl)methyl)cyclohexyl)amino)-7H-pyrrolo [2,3-d]pyrimidin-7-yl) methyl 2-(1,8-diethyl-1,3,4,9-tetrahydropyran [3,4-b]indol-1-yl) acetate] | 0.72 |
| CC(C(=O)n1ccc2c(N(C)[C@H]3CN(C(=O)CC#N)CC[C@H]3C)ncnc21)c1ccc(CC2CCCC2=O)cc1 (stereo partly drawn) [Ex. 11, 3-((3R,4R)-4-methyl-3-(methyl (7-(2-(4-((2-oxocyclopentyl)methyl)phenyl)propanoyl)-7H-pyrrolo[2,3-d]pyrimidin-4-yl)amino)piperidin-1-yl)-3-oxopropanenitrile] | 9.17 |
| CCS(=O)(=O)N1CC(CC#N)(n2cc(-c3ncnc4c3ccn4COC(=O)[C@@H](NC(=O)OC(C)(C)C)c3ccccc3)cn2)C1 [Ex. 74, Methyl (4-(1-(3-(cyanomethyl)-1-(ethylsulfonyl)azetidin-3-yl)-1H-pyrazol-4-yl)-7H-pyrrolo [2,3-d]pyrimidin-7-yl) (S)-2-((tert-butoxycarbonyl)amino)-2-phenylacetate] | 0.44 |
| CC(C)Cc1ccc([C@H](C)C(=O)OCn2ccc3c(N4CC[C@]5(C4)[C@@H](C)CN5C(=O)CC#N)ncnc32)cc1 [Ex. 144, (4-((3S, 4R)-1-(2-cyanoacetyl)-3-methyl-1,6-diazaspiro [3.4]octan-6-yl)-7H-pyrrolo [2,3-d]pyrimidin-7-yl) methyl (S)-2-(4-isobutylphenyl) propanoate] | 0.05 |
| CNS(=O)(=O)C[C@H]1CC[C@H](N(C)c2ncnc3c2ccn3C(=O)C(C)c2cccc(Oc3ccccc3)c2)CC1 (stereo partly drawn) [Ex. 68, N-methyl-1-((trans)-4-(methyl (7-(2-(3-phenoxyphenyl)propanoyl)-7H-pyrrolo [2,3-d]pyrimidin-4-yl)amino)cyclohexyl) methanesulfonamide] | 10.6 |
| CNS(=O)(=O)CC1CCC(N(C)c2ncnc3c2ccn3C(=O)C(C)c2cccc(C(=O)c3ccccc3)c2)CC1 (stereo not drawn) [Ex. 38, 1-((Trans)-4-((7-(2-(3-benzoylphenyl)propanoyl)-7H-pyrrolo [2,3-d]pyrimidin-4-yl) (methyl)amino)cyclohexyl)-N-methyl methanesulfonamide] | 18.42 |
| CC[C@@H]1CN(C(=O)NCC(F)(F)F)C[C@@H]1c1cnc2cnc3c(ccn3C(=O)Cc3c(C)n(C(=O)c4ccc(Cl)cc4)c4ccc(OC)cc34)n12 [Ex. 133, (3R, 4S)-3-(3-(2-(1-(4-Chlorobenzoyl)-5-methoxy-2-methyl-1H-indol-3-yl)acetyl)-3H-imidazo [1,2-a]pyrrolo [2,3-e]pyrazin-8-yl)-4-ethyl-N-(2,2,2-trifluoroethyl) pyrrolidine-1-carboxamide] | 10.13 |
| CC(=O)Nc1ccc(CC(=O)n2ccc3c(N(C)[C@H]4CN(C(=O)CC#N)CC[C@H]4C)ncnc32)cc1 [Ex. 13, N-(4-(2-(4-(((3R, 4R)-1-(2-cyanoacetyl)-4-methylpiperidin-3-yl) (methyl)amino)-7H-pyrrolo[2,3-d]pyrimidin-7-yl)-2-oxoethyl)phenyl)acetamide] | 12.18 |
| CNS(=O)(=O)C[C@H]1CC[C@H](N(C)c2ncnc3c2ccn3C(=O)C(C)c2ccc(CC3CCCC3=O)cc2)CC1 (stereo partly drawn) [Ex. 44, N-methyl-1-((trans)-4-(methyl (7-(2-(4-((2-oxocyclopentyl)methyl)phenyl)propanoyl)-7H-pyrrolo [2,3-d]pyrimidin-4-yl)amino)cyclohexyl) methanesulfonamide] | 10.18 |

Results, then the compound that gave them:

| Release Rate (%/day) | Compound |
| --- | --- |
| 2.97 | CCS(=O)(=O)N1CC(CC#N)(n2cc(-c3ncnc4c3ccn4C(=O)[C@@H](C)c3ccc4cc(OC)ccc4c3)cn2)C1 [Ex. 18, (S)-2-(1-(ethylsulfonyl)-3-(4-(7-(2-(6-methoxynaphthalen-2-yl)propanoyl)-7H-pyrrolo [2,3-d]pyrimidin-4-yl)-1H-pyrazol-1-yl)azetidin-3-yl) acetonitrile] |
| 0.013 | CCS(=O)(=O)N1CC(CC#N)(n2cc(-c3ncnc4c3ccn4COC(=O)c3ccccc3Nc3cccc(Cl)c3C)cn2)C1 [Ex. 81, Methyl (4-(1-(3-(cyanomethyl)-1-(ethylsulfonyl)azetidin-3-yl)-1H-pyrazol-4-yl)-7H-pyrrolo [2,3-d]pyrimidin-7-yl) 2-((3-chloro-2-methylphenyl)amino) benzoate] |
| <0.01 | CCS(=O)(=O)N1CC(CC#N)(n2cc(-c3ncnc4c3ccn4COC(=O)[C@@H](C)c3ccc(CC(C)C)cc3)cn2)C1 [Ex. 60, Methyl (4-(1-(3-(cyanomethyl)-1-(ethylsulfonyl)azetidin-3-yl)-1H-pyrazol-4-yl)-7H-pyrrolo [2,3-d]pyrimidin-7-yl) (S)-2-(4-isobutylphenyl) propanoate] |
| 0.03 | CCS(=O)(=O)N1CC(CC#N)(n2cc(-c3ncnc4c3ccn4COC(=O)C(C)c3ccc(-c4ccccc4)c(F)c3)cn2)C1 (stereo not drawn) [Ex. 69, Methyl (4-(1-(3-(cyanomethyl)-1-(ethylsulfonyl)azetidin-3-yl)-1H-pyrazol-4-yl)-7H-pyrrolo [2,3-d]pyrimidin-7-yl) 2-(2-fluoro-[1, 1′-biphenyl]-4-yl) propanoate] |
| 0.68 | CCc1cccc2c3c([nH]c12)C(CC)(CC(=O)n1ccc2c(-c4cnn(C5(CC#N)CN(S(=O)(=O)CC)C5)c4)ncnc21)OCC3 (stereo not drawn) [Ex. 25, 2-(3-(4-(7-(2-(1,8-diethyl-1,3,4,9-tetrahydropyrano [3,4-b]indol-1-yl)acetyl)-7H-pyrrolo [2,3-d]pyrimidin-4-yl)-1H-pyrazol-1-yl)-1-(ethylsulfonyl)azetidin-3-yl) acetonitrile] |
| 6.17 | CC[C@@H]1CN(C(=O)NCC(F)(F)F)C[C@@H]1c1cnc2cnc3c(ccn3C(=O)C(C)c3ccc(-c4ccccc4)c(F)c3)n12 (stereo partly drawn) [Ex. 125, (3S, 4R)-3-ethyl-4-(3-(2-(2-fluoro-[1, 1′-biphenyl]-4-yl)propanoyl)-3H-imidazo [1,2-a]pyrrolo [2,3-e]pyrazin-8-yl)-N-(2,2,2-trifluoroethyl) pyrrolidine-1-carboxamide] |
| 0.22 | Cc1c(Cl)cccc1Nc1ccccc1C(=O)OCn1ccc2c(-c3cnn([C@H](CC#N)C4CCCC4)c3)ncnc21 [Ex. 107, (R)-(4-(1-(2-cyano-1-cyclopentylethyl)-1H-pyrazol-4-yl)-7H-pyrrolo [2,3-d]pyrimidin-7-yl) methyl 2-((3-chloro-2-methylphenyl)amino) benzoate] |
